pIC50: −log10 of the molar value.
Test system: SW 1271 complex tumor spheroid viability
Assay: Anticancer human tumor SW 1271 cell line growth inhibition;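 note: spheroids exposed to agents for seven days before readout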;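 for viability, T/C: percent of DMSO vehicle control luminescence so 100% = vehicle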
Settings: for pIC50: curve of first compound; for viability, T/C: stronger effect = lower value
Source text: Multicellular complex tumor spheroid response to DNA repair inhibitors in combination with DNA-damaging drugs
This study explores the anticancer activities of DNA-damaging drugs and inhibitors of DNA damage repair, both as single agents and in combinations. Complex tumor spheroids comprised of malignant cells, endothelial cells and mesenchymal stem cells served as an in vitro model for human solid tumors. This model system incorporates physiologically relevant features and patient-derived or established malignant cell lines with clinically relevant genetic alterations from many tumor types. Twenty-six patient-derived or established malignant cell lines were evaluated representing sarcoma, melanoma, small cell lung cancer (SCLC), non-small cell lung cancer (NSCLC), as well as bladder, ovarian and pancreatic cancers. The concentration ranges selected for each drug and investigational agent were based upon clinically achievable concentrations if the clinical Cmax of the agent was known.
Compounds. The drugs and compounds olaparib (NSC753686), talazoparib (NSC767125), berzosertib (NSC777718), elimusertib (NSC800525), nedisertib (NSC802822), VX-984 (NSC792969), AZD-1390 (NSC803789), temozolomide (NSC362856), topotecan (NSC609699), trabectedin (NSC813783), staurosporine (NSC755774), and gemcitabine (NSC613327) were obtained from the National Cancer Institute (NCI) Developmental Therapeutics Program Chemical Repository. The FDA-approved anticancer drug set is available from the Developmental Therapeutics Program at https://dtp.cancer.gov/organization/dscb/obtaining/available_plates.htm. […] The stock solutions were prepared in dimethyl sulfoxide (DMSO, Sigma-Aldrich, St. Louis, MO, cat. D2650) at 400-fold the tested concentration and stored at -70 degrees C. Prior to their use, the stock solutions were diluted in fresh medium and the final DMSO concentration in the assay was 0.25% (v/v). All drugs and investigational agents were tested over a range starting from a high concentration at or near the clinical Cmax and decreasing in half-log increments. If the clinical Cmax for an agent had not been determined, the highest concentration tested was 10 microM.
Cell Lines. The patient-derived cancer cell (PDC) lines: 156681-154-R-J1-PDC, 283228-195-R-J1-PDC, 287954-098-R-J1-PDC, 292921-168-R-J2-PDC, 349418-098-R-PDC, 425362-245-T-J1-PDC, 556581-035-R-J1-PDC, and BL0293-F563-PDC were received from the NCI Patient-Derived Models Repository (PDMR, https://pdmr.cancer.gov). The established cell lines HS-SY-2 (RRID:CVCL_8719), MPNST, and SYO-1 (RRID:CVCL_7146) were obtained from the Sloan Kettering Institute. The alveolar soft parts sarcoma cell line ASPS-1 (RRID:CVCL_S738) was established at the NCI and grown from internal seed stocks. The following established cell lines were purchased from the American Type Culture Collection (ATCC, Manassas, VA): G-401 (ATCC, cat. CRL-1441, RRID:CVCL_0270), SW982 (ATCC, cat. HTB-93, RRID:CVCL_1734), VA-ES-BJ (ATCC, cat. CRL-2138, RRID:CVCL_1785), NCI-H719 (ATCC, cat. CRL-5837, RRID:CVCL_1582), NCI-H196 (ATCC, cat. CRL-5823, RRID:CVCL_1509), NCI-H841 (ATCC, cat. CRL-5845, RRID:CVCL_1595), NCI-H1618 (ATCC, cat. CRL-5879, RRID:CVCL_1480), NCI-H1876 (ATCC, cat. CRL-5902, RRID:CVCL_1503), DMS 114 (ATCC, cat. CRL-2066; RRID:CVCL_1174), NCI-H211 (ATCC, cat. CRL-5824; RRID:CVCL_1529), and SW 1271 (ATCC, cat. CRL-2177, RRID:CVCL_1716). The small cell lung cancer cell line COR-L88 was purchased from Sigma-Aldrich (cat. 92031917-1VL, RRID:CVCL_1141). The non-small cell lung cancer cell lines NCI-H226 (RRID:CVCL_1544) and NCI-H322M (RRID:CVCL_1557) were established at the NCI and grown from internal seed stocks. Pooled donor human umbilical vein endothelial cells (HUVEC, Lonza, cat. CC-2519) and human mesenchymal stem cells (hMSC, Lonza, cat. PT-2501) were purchased from Lonza (Walkersville, MD).
Cell Culture. All cells were maintained in an incubator at 37 degrees C and 5% CO2 with 95% humidity. […]

[1] = second compound 0.003 µM, first compound 0.00949 µM
[2] = second compound 0.003 µM, first compound 0.03 µM
[3] = second compound 0.003 µM, first compound 0.0949 µM
[4] = second compound 0.003 µM, first compound 0.3 µM
[5] = second compound 0.003 µM, first compound 0.949 µM
[6] = second compound 0.003 µM, first compound 3 µM
[7] = second compound 0.00949 µM, first compound 0.00949 µM
[8] = second compound 0.00949 µM, first compound 0.03 µM
[9] = second compound 0.00949 µM, first compound 0.0949 µM
[10] = second compound 0.00949 µM, first compound 0.3 µM
[11] = second compound 0.00949 µM, first compound 0.949 µM
[12] = second compound 0.00949 µM, first compound 3 µM
[13] = second compound 0.03 µM, first compound 0.00949 µM
[14] = second compound 0.03 µM, first compound 0.03 µM
[15] = second compound 0.03 µM, first compound 0.0949 µM
[16] = second compound 0.03 µM, first compound 0.3 µM
[17] = second compound 0.03 µM, first compound 0.949 µM
[18] = second compound 0.03 µM, first compound 3 µM
[19] = second compound 0.0949 µM, first compound 0.00949 µM
[20] = second compound 0.0949 µM, first compound 0.03 µM
[21] = second compound 0.0949 µM, first compound 0.0949 µM
[22] = second compound 0.0949 µM, first compound 0.3 µM
[23] = second compound 0.0949 µM, first compound 0.949 µM
[24] = second compound 0.0949 µM, first compound 3 µM
[25] = second compound 0.3 µM, first compound 0.00949 µM
[26] = second compound 0.3 µM, first compound 0.03 µM
[27] = second compound 0.3 µM, first compound 0.0949 µM
[28] = second compound 0.3 µM, first compound 0.3 µM
[29] = second compound 0.3 µM, first compound 0.949 µM
[30] = second compound 0.3 µM, first compound 3 µM

SMILES: CNCc1ccc(-c2cc(-c3nc(-c4ccc(S(=O)(=O)C(C)C)cc4)cnc3N)on2)cc1 + CC[C@@]1(O)C(=O)OCc2c1cc1n(c2=O)Cc2cc3c(CN(C)C)c(O)ccc3nc2-1
- pIC50 (second compound 0.003 µM): 7.41
- pIC50 (second compound 0.00949 µM): > 8.02
- pIC50 (second compound 0.03 µM): > 8.02
- pIC50 (second compound 0.0949 µM): > 8.02
- pIC50 (second compound 0.3 µM): > 8.02
- viability, T/C [1]: 84.7%
- viability, T/C [2]: 60.7%
- viability, T/C [3]: 21.3%
- viability, T/C [4]: 27.2%
- viability, T/C [5]: 5.87%
- viability, T/C [6]: 0.11%
- viability, T/C [7]: 38.9%
- viability, T/C [8]: 29%
- viability, T/C [9]: 19.9%
- viability, T/C [10]: 11.5%
- viability, T/C [11]: 9.07%
- viability, T/C [12]: 0.1%
- viability, T/C [13]: 22.5%
- viability, T/C [14]: 23.3%
- viability, T/C [15]: 20.2%
- viability, T/C [16]: 34.2%
- viability, T/C [17]: 12%
- viability, T/C [18]: 0.09%
- viability, T/C [19]: 23.2%
- viability, T/C [20]: 25.8%
- viability, T/C [21]: 21.6%
- viability, T/C [22]: 20.5%
- viability, T/C [23]: 10.8%
- viability, T/C [24]: 0.09%
- viability, T/C [25]: 18.1%
- viability, T/C [26]: 17%
- viability, T/C [27]: 20.4%
- viability, T/C [28]: 10.8%
- viability, T/C [29]: 1.75%
- viability, T/C [30]: 7.62%

SMILES: Cc1sc2c(c1C)C(c1ccc(Cl)cc1)=NC(CC(=O)Nc1ccc(O)cc1)c1nnc(C)n1-2 (stereo not given) + CC[C@@]1(O)C(=O)OCc2c1cc1n(c2=O)Cc2cc3c(CN(C)C)c(O)ccc3nc2-1
- pIC50 (second compound 0.003 µM): 7.29
- pIC50 (second compound 0.00949 µM): 7.97
- pIC50 (second compound 0.03 µM): > 8.02
- pIC50 (second compound 0.0949 µM): > 8.02
- pIC50 (second compound 0.3 µM): > 8.02
- viability, T/C [1]: 81.4%
- viability, T/C [2]: 71.3%
- viability, T/C [3]: 25.5%
- viability, T/C [4]: 3.11%
- viability, T/C [5]: 1.06%
- viability, T/C [6]: 1.11%
- viability, T/C [7]: 52.3%
- viability, T/C [8]: 32.1%
- viability, T/C [9]: 12.8%
- viability, T/C [10]: 2.4%
- viability, T/C [11]: 1.61%
- viability, T/C [12]: 1.61%
- viability, T/C [13]: 25.2%
- viability, T/C [14]: 24.4%
- viability, T/C [15]: 14.6%
- viability, T/C [16]: 2.67%
- viability, T/C [17]: 1.56%
- viability, T/C [18]: 1.13%
- viability, T/C [19]: 29%
- viability, T/C [20]: 24.5%
- viability, T/C [21]: 13.2%
- viability, T/C [22]: 3.31%
- viability, T/C [23]: 1.34%
- viability, T/C [24]: 2.04%
- viability, T/C [25]: 16.9%
- viability, T/C [26]: 16.3%
- viability, T/C [27]: 7.74%
- viability, T/C [28]: 1.97%
- viability, T/C [29]: 0.91%
- viability, T/C [30]: 0.97%

SMILES: Cn1ncnc1[C@H]1c2n[nH]c(=O)c3cc(F)cc(c23)N[C@@H]1c1ccc(F)cc1 + CC[C@@]1(O)C(=O)OCc2c1cc1n(c2=O)Cc2cc3c(CN(C)C)c(O)ccc3nc2-1
- pIC50 (second compound 0.003 µM): > 8.02
- pIC50 (second compound 0.00949 µM): > 8.02
- pIC50 (second compound 0.03 µM): > 8.02
- pIC50 (second compound 0.0949 µM): > 8.02
- pIC50 (second compound 0.3 µM): > 8.02
- viability, T/C [1]: 27.6%
- viability, T/C [2]: 23.9%
- viability, T/C [3]: 21.4%
- viability, T/C [4]: 24.1%
- viability, T/C [5]: 23.4%
- viability, T/C [6]: 21.7%
- viability, T/C [7]: 26.2%
- viability, T/C [8]: 27.6%
- viability, T/C [9]: 28.4%
- viability, T/C [10]: 25.9%
- viability, T/C [11]: 26.7%
- viability, T/C [12]: 17.2%
- viability, T/C [13]: 27.7%
- viability, T/C [14]: 28.3%
- viability, T/C [15]: 24.2%
- viability, T/C [16]: 25.2%
- viability, T/C [17]: 25%
- viability, T/C [18]: 18%
- viability, T/C [19]: 22.6%
- viability, T/C [20]: 27.9%
- viability, T/C [21]: 28.1%
- viability, T/C [22]: 23.7%
- viability, T/C [23]: 22%
- viability, T/C [24]: 11.3%
- viability, T/C [25]: 11.1%
- viability, T/C [26]: 16.5%
- viability, T/C [27]: 11.4%
- viability, T/C [28]: 9.66%
- viability, T/C [29]: 6.32%
- viability, T/C [30]: 3.75%

SMILES: O=C(c1cc(Cc2n[nH]c(=O)c3ccccc23)ccc1F)N1CCN(C(=O)C2CC2)CC1 + CC[C@@]1(O)C(=O)OCc2c1cc1n(c2=O)Cc2cc3c(CN(C)C)c(O)ccc3nc2-1
- pIC50 (second compound 0.003 µM): > 7.02
- pIC50 (second compound 0.00949 µM): > 7.02
- pIC50 (second compound 0.03 µM): > 7.02
- pIC50 (second compound 0.0949 µM): > 7.02
- pIC50 (second compound 0.3 µM): > 7.02
- viability, T/C [3]: 34.5%
- viability, T/C [4]: 42.2%
- viability, T/C [5]: 40.8%
- viability, T/C [6]: 27.9%
- viability, T/C (second compound 0.003 µM, first compound 9.49 µM): 27.4%
- viability, T/C (second compound 0.003 µM, first compound 30 µM): 25.8%
- viability, T/C [9]: 27%
- viability, T/C [10]: 27%
- viability, T/C [11]: 28.1%
- viability, T/C [12]: 25.3%
- viability, T/C (second compound 0.00949 µM, first compound 9.49 µM): 29.2%
- viability, T/C (second compound 0.00949 µM, first compound 30 µM): 28.3%
- viability, T/C [15]: 25%
- viability, T/C [16]: 25.5%
- viability, T/C [17]: 29.5%
- viability, T/C [18]: 37.1%
- viability, T/C (second compound 0.03 µM, first compound 9.49 µM): 26.1%
- viability, T/C (second compound 0.03 µM, first compound 30 µM): 29.7%
- viability, T/C [21]: 34.8%
- viability, T/C [22]: 26.4%
- viability, T/C [23]: 28.4%
- viability, T/C [24]: 27.1%
- viability, T/C (second compound 0.0949 µM, first compound 9.49 µM): 28.7%
- viability, T/C (second compound 0.0949 µM, first compound 30 µM): 28%
- viability, T/C [27]: 16.1%
- viability, T/C [28]: 13.4%
- viability, T/C [29]: 12.1%
- viability, T/C [30]: 10.5%
- viability, T/C (second compound 0.3 µM, first compound 9.49 µM): 19%
- viability, T/C (second compound 0.3 µM, first compound 30 µM): 8.08%
